What all share (type): in vivo
The test system of experiment [1] is Alopecurus myosuroides (ALOMY). As to the kind of experiment: Post-emergence biological efficacy, glasshouse pot test. To be noted: 312 h, 1,000 g/ha, evaluated after 13 days, 100=total damage, 0=no damage, read-out: Percentage damage caused to weed species, post-emergence, ALOMY. The gist of the method:
(§1)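 Weeds grown 8 days in glasshouse pots (24/16 °C, 14 h light, 65% humidity) were sprayed with compound in acetone/water plus 0.5% Tween 20 at 1000 or 250 g/ha. Damage was scored 13 days later on a 0–100 scale (100 = total damage).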

Experiment [2] concerns Ipomea hederaceae (IPOHE). The description is as above. To be noted: Ipomoea hederacea, 312 h, 1,000 g/ha, evaluated after 13 days, 100=total damage, 0=no damage, read-out: Percentage damage caused to weed species, post-emergence, IPOHE. The gist of the method:
as §1

Experiment [3] deals with Setaria faberi (SETFA). The experiment is described as above. The conditions noted are these: 312 h, 1,000 g/ha, evaluated after 13 days, 100=total damage, 0=no damage, read-out: Percentage damage caused to weed species, post-emergence, SETFA. The gist of the method: as §1
Experiment [4] concerns Echinochloa crus-galli (ECHCG). The description is as above. To be noted: 312 h, 1,000 g/ha, evaluated after 13 days, 100=total damage, 0=no damage, read-out: Percentage damage caused to weed species, post-emergence, ECHCG. The gist of the method: as §1
The subject of experiment [5] is Solanum nigrum (SOLNI). Described as above. The conditions noted are these: 312 h, 1,000 g/ha, evaluated after 13 days, 100=total damage, 0=no damage, read-out: Percentage damage caused to weed species, post-emergence, SOLNI. A digest of the protocol:
as §1

The test system of experiment [6] is Amaranthus retroflexus (AMARE). Described as above. To be noted: 312 h, 1,000 g/ha, evaluated after 13 days, 100=total damage, 0=no damage, read-out: Percentage damage caused to weed species, post-emergence, AMARE. The gist of the method: as §1
Experiment [7] concerns Alopecurus myosuroides (ALOMY). Briefly: Pre-emergence biological efficacy, glasshouse pot test. The conditions noted are these: 312 h, 1,000 g/ha, evaluated after 13 days, 100=total damage, 0=no damage, read-out: Percentage damage caused to weed species, pre-emergence, ALOMY. The gist of the method:
(§2)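 Plants treated pre-emergence received 1000 or 250 g/ha in an acetone/water (50:50) vehicle containing 0.5% Tween 20 and were kept in a glasshouse at 24/16 °C with 14 h light. Injury was rated on day 13, where 100 meant total damage.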

Experiment [8] deals with Ipomea hederaceae (IPOHE). Described as above. To be noted: Ipomoea hederacea, 312 h, 1,000 g/ha, evaluated after 13 days, 100=total damage, 0=no damage, read-out: Percentage damage caused to weed species, pre-emergence, IPOHE. A digest of the protocol:
as §2

Experiment [9] concerns Setaria faberi (SETFA). Described as above. To be noted: 312 h, 1,000 g/ha, evaluated after 13 days, 100=total damage, 0=no damage, read-out: Percentage damage caused to weed species, pre-emergence, SETFA. A digest of the protocol: as §2
For experiment [10], the system named is Echinochloa crus-galli (ECHCG). The description is as above. The conditions noted are these: 312 h, 1,000 g/ha, evaluated after 13 days, 100=total damage, 0=no damage, read-out: Percentage damage caused to weed species, pre-emergence, ECHCG. A digest of the protocol:
as §2

Experiment [11] relates to Solanum nigrum (SOLNI). The description is as above. The conditions noted are these: 312 h, 1,000 g/ha, evaluated after 13 days, 100=total damage, 0=no damage, read-out: Percentage damage caused to weed species, pre-emergence, SOLNI. The gist of the method: as §2
Experiment [12] has as its system Amaranthus retroflexus (AMARE). The description is as above. The conditions noted are these: 312 h, 1,000 g/ha, evaluated after 13 days, 100=total damage, 0=no damage, read-out: Percentage damage caused to weed species, pre-emergence, AMARE. The gist of the method:
as §2

Each structure is given as a SMILES string.

Our source for the pest or weed control values is patent US20120100990A1, “4 -AMINOPICOLINATES AND THEIR USE AS HERBICIDES” (SYNGENTA CROP PROTECTION LLC, priority 2009, published 2012).

In the case of `C=Cc1c(C(=O)OC)nc(Cl)c(F)c1NCc1ccccc1[N+](=O)[O-]` [Compound 15-27, 6-Chloro-3-ethenyl-5-fluoro-4-[(2-nitrophenylmeth-yl)amino]-pyridine-2-carboxylic acid methyl ester], the pest or weed control at 1000 g/ha in experiment [1] is 70%; in experiment [2], 90%; in the experiment with Setaria faberi (SETFA) [3], 90%; in experiment [4] it was 70%; in the experiment with Solanum nigrum (SOLNI) [5], 100%; in experiment [6] it was 100%. The pest or weed control at 1000 g/ha in experiment [7] turned out to be 90%; in experiment [8] it was 90%; in the experiment with Setaria faberi (SETFA) [9] it was 90%; in experiment [10], 90%; in the experiment with Solanum nigrum (SOLNI) [11], 100%; in experiment [12], 100%.

Turning to `C=Cc1c(NCc2ccccc2C)cc(Cl)nc1C(=O)OC` [Compound 9-12, 6-Chloro-3-ethenyl-4-[(2-methylphenyl-methyl)-amino]-pyridine-2-carboxylic acid methyl ester], the pest or weed control at 1000 g/ha in experiment [1] amounted to 40%; in [2], 40%; in the experiment with Setaria faberi (SETFA) [3], 50%; in [4], 50%; in the experiment with Solanum nigrum (SOLNI) [5], 80%; in experiment [6], 100%. Further, the pest or weed control at 1000 g/ha in experiment [7] is 10%; in [8] it was 60%; in the experiment with Setaria faberi (SETFA) [9] it was 0%; in [10] it was 10%; with Solanum nigrum (SOLNI) [11], 100%; in [12], 90%.

For `COC(=O)c1nc(Cl)cc(NCc2cccnc2)c1Cl` [Compound 78-2, 3,6-Dichloro-4-(pyridin-3-ylmethylamino)-pyridine-2-carboxylic acid methyl ester], the pest or weed control at 1000 g/ha in experiment [1] amounted to 20%; in experiment [2] it was 70%; in the experiment with Setaria faberi (SETFA) [3], 50%; in [4] it was 20%; in the experiment with Solanum nigrum (SOLNI) [5], 100%; in experiment [6] it was 100%. Moreover, the pest or weed control at 1000 g/ha in experiment [7] amounted to 40%; in experiment [8], 90%; in the experiment on Setaria faberi (SETFA) [9], 50%; in [10], 20%; in the experiment with Solanum nigrum (SOLNI) [11] it was 100%; in experiment [12] it was 100%.

As for `COC(=O)c1nc(Cl)c(F)c(NCc2ccccc2[N+](=O)[O-])c1C` [Compound 15-31, 6-Chloro-5-fluoro-3-methyl-4-[(2-nitrophenyl-methyl)-amino]-pyridine-2-carboxylic acid methyl ester], the pest or weed control at 1000 g/ha came to 20% in experiment [1]; 70% in experiment [2]; 80% in the experiment on Setaria faberi (SETFA) [3]; 50% in [4]; 100% in the experiment on Solanum nigrum (SOLNI) [5]; 100% in experiment [6]. For the same compound, the pest or weed control at 1000 g/ha is 20% in experiment [7]; 70% in experiment [8]; 20% with Setaria faberi (SETFA) [9]; 20% in [10]; 90% in the experiment with Solanum nigrum (SOLNI) [11]; 100% in experiment [12].

As for `COC(=O)c1nc(C2CC2)cc(NCc2ccco2)c1Cl` [Compound 26-83, 3-chloro-6-cyclopropyl-4-[(furan-2-ylmethyl)-amino]-pyridine-2-carboxylic acid methyl ester], the pest or weed control at 1000 g/ha in [1] came to 0%; in experiment [2] it was 100%; in the experiment on Setaria faberi (SETFA) [3], 0%; in experiment [4], 0%; in the experiment on Solanum nigrum (SOLNI) [5], 90%; in experiment [6], 100%. The pest or weed control at 1000 g/ha in experiment [7] came to 40%; in experiment [8] it was 100%; with Setaria faberi (SETFA) [9], 20%; in [10], 20%; with Solanum nigrum (SOLNI) [11], 100%; in [12] it was 100%.

In the case of `CCN1CCCC1CNc1cc(Cl)nc(C(=O)OC)c1Cl` (stereo not drawn) [Compound 71-2, 3,6-Dichloro-4-[(N-ethyl-pyrrolidin-2-ylmethyl)-amino]-pyridine-2-carboxylic acid methyl ester], the pest or weed control at 1000 g/ha was found to be 20% in [1]; 60% in [2]; 50% in the experiment on Setaria faberi (SETFA) [3]; 20% in experiment [4]; 100% with Solanum nigrum (SOLNI) [5]; 100% in [6]. Also, the pest or weed control at 1000 g/ha in [7] was 70%; in experiment [8] it was 100%; in the experiment on Setaria faberi (SETFA) [9] it was 80%; in [10], 20%; in the experiment with Solanum nigrum (SOLNI) [11] it was 100%; in experiment [12], 100%.

With `COC(=O)c1nc(Cl)cc(NCc2cc(C)nn2C)c1Cl` [Compound 77-2, 3,6-Dichloro-4-[(1,3-dimethylpyrazol-5-ylmethyl)-amino]-pyridine-2-carboxylic acid methyl ester], the pest or weed control at 1000 g/ha in experiment [1] came out at 50%; in [2] it was 80%; in the experiment on Setaria faberi (SETFA) [3], 80%; in [4], 30%; with Solanum nigrum (SOLNI) [5] it was 100%; in experiment [6], 100%. The pest or weed control at 1000 g/ha in [7] turned out to be 60%; in experiment [8] it was 90%; with Setaria faberi (SETFA) [9], 70%; in experiment [10], 20%; with Solanum nigrum (SOLNI) [11], 100%; in experiment [12] it was 100%.

With `COC(=O)c1nc(Cl)cc(NCc2ccco2)c1Cl` [Compound 26-2, 3,6-dichloro-4-[(furan-2-ylmethyl)-amino]-pyridine-2-carboxylic acid methyl ester], the pest or weed control at 1000 g/ha in [1] worked out at 40%; in [2] it was 60%; with Setaria faberi (SETFA) [3], 90%; in experiment [4] it was 30%; in the experiment with Solanum nigrum (SOLNI) [5] it was 100%; in experiment [6], 100%. In addition, the pest or weed control at 1000 g/ha is 70% in experiment [7]; 90% in [8]; 90% in the experiment on Setaria faberi (SETFA) [9]; 30% in experiment [10]; 100% with Solanum nigrum (SOLNI) [11]; 100% in experiment [12].

For the compound `COC(=O)c1nc(Cl)c(Cl)c(NCc2ccccc2[N+](=O)[O-])c1Br` [Compound 15-41, 3-bromo-5,6-dichloro-4-[(2-nitrophenyl-methyl)-amino]-pyridine-2-carboxylic acid methyl ester], the pest or weed control at 1000 g/ha in [1] worked out at 10%; in experiment [2], 80%; with Setaria faberi (SETFA) [3], 70%; in experiment [4], 0%; in the experiment with Solanum nigrum (SOLNI) [5], 100%; in experiment [6] it was 100%. Besides, the pest or weed control at 1000 g/ha came to 20% in experiment [7]; 100% in [8]; 30% in the experiment with Setaria faberi (SETFA) [9]; 40% in experiment [10]; 80% in the experiment with Solanum nigrum (SOLNI) [11]; 100% in [12].
